This passage reports IC50 results from patent publication US8354400B2, “Benzoxazole compounds and methods of use” (Eisai R&D Co., Ltd., priority 2008, dated 2013).

Like-named read-outs stand apart in the source and are kept apart here.

Type in all cases: cell-based
The target in one test is T1, human TLR9 (Homo sapiens, UniProt Q9NR96).
T1 construct: expressed in transfected cells; host or cells: HEK293 (ATCC No. CRP-1573 [sic])
T1 sequence (Q9NR96 26-1032): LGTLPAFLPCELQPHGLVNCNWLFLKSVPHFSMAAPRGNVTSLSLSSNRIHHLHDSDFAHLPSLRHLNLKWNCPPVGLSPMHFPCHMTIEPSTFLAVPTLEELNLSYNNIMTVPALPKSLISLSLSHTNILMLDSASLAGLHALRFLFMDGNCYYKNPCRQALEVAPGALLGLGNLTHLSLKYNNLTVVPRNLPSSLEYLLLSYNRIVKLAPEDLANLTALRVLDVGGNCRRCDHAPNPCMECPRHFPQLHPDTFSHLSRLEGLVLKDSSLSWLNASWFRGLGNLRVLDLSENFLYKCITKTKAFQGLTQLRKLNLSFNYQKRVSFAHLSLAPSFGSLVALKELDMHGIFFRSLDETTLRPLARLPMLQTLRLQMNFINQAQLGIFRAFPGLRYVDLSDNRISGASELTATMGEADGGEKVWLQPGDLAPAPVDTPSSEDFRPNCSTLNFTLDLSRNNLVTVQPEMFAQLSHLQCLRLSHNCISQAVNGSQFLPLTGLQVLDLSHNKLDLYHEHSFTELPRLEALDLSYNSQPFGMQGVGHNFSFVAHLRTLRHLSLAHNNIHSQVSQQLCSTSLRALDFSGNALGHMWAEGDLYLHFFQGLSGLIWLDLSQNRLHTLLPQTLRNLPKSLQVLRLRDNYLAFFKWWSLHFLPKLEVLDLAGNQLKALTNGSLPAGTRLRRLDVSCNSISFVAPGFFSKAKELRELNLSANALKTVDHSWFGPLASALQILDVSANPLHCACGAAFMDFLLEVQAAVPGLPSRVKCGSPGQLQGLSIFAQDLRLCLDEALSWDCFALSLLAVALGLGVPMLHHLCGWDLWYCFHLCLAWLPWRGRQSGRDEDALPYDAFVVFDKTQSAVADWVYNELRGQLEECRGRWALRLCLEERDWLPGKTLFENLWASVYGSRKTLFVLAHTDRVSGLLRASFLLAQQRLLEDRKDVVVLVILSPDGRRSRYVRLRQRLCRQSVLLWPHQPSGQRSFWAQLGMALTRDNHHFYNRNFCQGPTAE
Description: Primary assay: HEK/TLR9 activation (NF-kB luciferase reporter, Oligo CpG 2006 stimulation). The text has this:
A. Primary Assay. The primary assay involved transfecting human embryonic kidney epithelial (HEK) cells with TLR9. More specifically, HEK293 […] cells (ATCC No. CRP-1573, American Type Culture Collection, Manassas, Va.) were transfected with pcDNA3.1D/V5-His-TOPO® plasmid (Invitrogen, Carlsbad, Calif.) encoding human TLR9 (directly inserted as a Tag polymerase-amplified PCR product) and firefly luciferase under the control of three NF-kB binding sites contained in the E-selectin-1 promoter, which was cloned into a pGL3-Enhancer Vector (Promega Corp, Madison, Wis.). Each compound was added to cells 30 min. before stimulation with Oligo CpG 2006, a synthetic phosphorothioate oligonucleotide (Hartmann et al., J Immunol. 164:1617-24 (2000)), with nucleotide sequence 5′-TCGTCGTTTTGTCGTTTTGTCGTT-3′ (SEQ ID NO:1). The cells were incubated overnight at 37° C. The luciferase substrate Steady-Glo® (Promega) was added to the wells, and luminescence was measured to determine the extent of TLR9-driven gene activation. The luminescence data was used to calculate an IC50 for each sample. The IC50 is defined as the concentration of compound that suppresses the luminescence to 50% of that observed in the absence of compound, in other words, with full stimulation.
Background: In a reporter assay the amount or activity of a reporter protein is the signal.

For test [1], the system named is mouse spleen IL-6 production in response to Oligo CpG 1668. Put plainly: Splenocyte CpG 1668 assay (IL-6 ELISA). To be noted: mouse splenocytes, Oligo CpG 1668, 72 hrs. The procedure:
(2) Splenocyte CpG 1668 Assay: Some of the compounds tested in the primary assay were also assayed for suppression of mouse spleen IL-6 production in response to stimulation with Oligo CpG 1668, a synthetic phosphorothioate oligonucleotide (Krieg et al. Nature. 374:546-9 (1995)), with nucleotide sequence [NT] (SEQ ID NO:2). Each compound was added to dissociated splenocytes before addition of stimulatory oligonucleotide. Cells were stimulated in culture for 72 hrs and the supernatant was removed for ELISA analysis of IL-6 level. Here the IC50 is defined as the concentration of compound that suppresses cytokine production to 50% of that observed in the absence of compound, i.e., full stimulation.

Another test has as its target T2, human TLR7 (Homo sapiens, UniProt Q9NYK1).
T2 construct: expressed in transfected cells; host or cells: HEK cell line (HEK293, as in the primary assay)
T2 sequence (Q9NYK1 27-1049): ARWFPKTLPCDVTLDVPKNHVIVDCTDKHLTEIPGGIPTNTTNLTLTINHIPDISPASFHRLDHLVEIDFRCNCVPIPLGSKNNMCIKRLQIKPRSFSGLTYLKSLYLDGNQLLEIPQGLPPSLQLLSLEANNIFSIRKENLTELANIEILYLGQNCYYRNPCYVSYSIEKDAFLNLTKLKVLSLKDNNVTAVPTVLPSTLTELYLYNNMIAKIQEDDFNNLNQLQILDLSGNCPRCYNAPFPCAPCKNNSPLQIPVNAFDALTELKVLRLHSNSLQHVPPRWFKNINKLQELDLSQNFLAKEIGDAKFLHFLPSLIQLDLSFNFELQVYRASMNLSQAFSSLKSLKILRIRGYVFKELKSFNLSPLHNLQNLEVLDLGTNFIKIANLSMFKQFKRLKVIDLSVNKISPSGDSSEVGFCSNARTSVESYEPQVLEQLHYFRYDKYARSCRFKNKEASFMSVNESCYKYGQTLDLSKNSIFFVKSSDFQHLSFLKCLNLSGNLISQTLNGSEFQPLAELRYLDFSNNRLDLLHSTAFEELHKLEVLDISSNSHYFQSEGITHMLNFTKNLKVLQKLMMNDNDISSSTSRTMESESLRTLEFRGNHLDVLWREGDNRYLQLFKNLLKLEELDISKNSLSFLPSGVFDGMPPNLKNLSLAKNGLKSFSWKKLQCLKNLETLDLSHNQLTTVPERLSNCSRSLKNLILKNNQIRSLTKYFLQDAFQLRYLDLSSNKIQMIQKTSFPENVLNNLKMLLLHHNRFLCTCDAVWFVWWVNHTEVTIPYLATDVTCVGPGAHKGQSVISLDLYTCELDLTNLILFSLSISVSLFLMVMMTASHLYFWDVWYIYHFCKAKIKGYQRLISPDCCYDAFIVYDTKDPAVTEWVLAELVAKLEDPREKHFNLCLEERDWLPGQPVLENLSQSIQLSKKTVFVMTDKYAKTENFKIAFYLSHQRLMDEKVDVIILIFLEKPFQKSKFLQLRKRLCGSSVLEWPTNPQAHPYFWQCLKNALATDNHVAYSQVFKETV
Description: HEK/TLR7 activation assay (R848 stimulation). To be noted: HEK cells transfected with human TLR7. The protocol:
(1) HEK/TLR7Activation Assay: The same compounds were tested in the same way as the primary assay with the following differences. The plasmid used to transfect the HEK cell line encoded for human TLR7 instead of TLR9, and R848 was used to stimulate the cells instead of Oligo CpG 2006.

Test [2] deals with dissociated mouse splenocytes. Put plainly: Spleen CellTiter-Glo viability assay. The conditions noted are these: Splenocyte, 72 hours, viability (ATP). The procedure:
(3) Spleen CT Glo Assay: To determine if compounds had adverse effects on living cells, dissociated mouse splenocytes were incubated with some of the compounds for 72 hours. At the end of the incubation Celliter-Glo™ reagent (Promega Corporation, Madison, Wis.) was added and luminescence was read per manufacturer's instructions. This reagent measures ATP as an indication of cell metabolism. Dead cells will not produce signal. IC50 is defined as the concentration of compound that suppresses viability to 50% of that observed in the absence of compound. The few compounds that measurably affected viability did so at concentrations far above those that affected cytokine release in response to TLR9 stimulation.

Where [3] appears, read: HEK293 transfected with human TLR9 and NF-kB luciferase, compound 30 min before Oligo CpG 2006, overnight, read-out: HEK/TLR9 IC50.
Setting [4] is: read-out: IC50 in the primary HEK/TLR9 assay.

Consider `CN(C)[C@H]1CCN(CCCOc2ccc(-c3nc4ccc(OCCCN5CC[C@H](N(C)C)C5)cc4o3)cc2)C1` [Compound 17], for which the IC50 on human TLR9 (setting [3]) is 5.3 nM; in test [1] it was 6 nM; on human TLR7, 170 nM; in test [2], greater than 10000 nM.

As for `CN(C)CCCOc1cccc(-c2nc3ccc(OCCCN(C)C)cc3o2)c1` [Compound 5], the figures for the IC50 on human TLR9 (setting [3]) and against human TLR7 were 11 nM and 2000 nM, respectively.

`COCCN(C)CCCOc1ccc(-c2nc3ccc(OCCCN(C)CCOC)cc3o2)cc1` [Compound 18]: the values for the IC50 (on human TLR9 (setting [3]); against human TLR7; in test [2]) were 19.2 nM, 1400 nM and 9900 nM, respectively.

For `CN(C)CCCOc1ccc2nc(-c3ccccc3OCCCN(C)C)oc2c1` [Compound 4], the figures for the IC50 at human TLR9 (setting [3]) and against human TLR7 were 12 nM and 1800 nM, respectively.

In the case of `CN(C)CCOc1ccc(-c2nc3ccc(OCCN(C)C)cc3o2)cc1` [Compound 1], the IC50 on human TLR9 (setting [3]) was 31 nM; on human TLR9 (setting [4]), 60 nM; in test [1], 290 nM; against human TLR7, 7800 nM.

For the compound `COC[C@@H]1CCCN1CCCOc1ccc(-c2nc3ccc(OCCCN4CCC[C@H]4COC)cc3o2)cc1` [Compound 25], the IC50 was 18.2 nM on human TLR9 (setting [3]), 48 nM in test [1] and greater than 10000 nM in test [2].

Consider `c1ccc(CNCCCOc2ccc(-c3nc4ccc(OCCCNCc5ccccn5)cc4o3)cc2)nc1` [Compound 8], for which the IC50 came out at 19.7 nM at human TLR9 (setting [3]), 1230 nM against human TLR7 and 7820 nM in test [2].

`CCOCCN1CCN(CCCOc2ccc(-c3nc4ccc(OCCCN5CCN(CCOCC)CC5)cc4o3)cc2)CC1` [Compound 15]: the IC50 is 23.2 nM on human TLR9 (setting [3]), 2240 nM on human TLR7 and greater than 10000 nM in test [2].

For the compound `CC(C)(CN1CCOCC1)NCCCOc1ccc(-c2nc3ccc(OCCCNC(C)(C)CN4CCOCC4)cc3o2)cc1` [Compound 10], the IC50 is 15.3 nM on human TLR9 (setting [3]), 26 nM in test [1], 350 nM against human TLR7 and 9800 nM in test [2].

Turning to `CCN(C)CCCOc1ccc(-c2nc3ccc(OCCCN(C)CC)cc3o2)cc1` [Compound 21], the IC50 at human TLR9 (setting [3]) amounted to 13.3 nM; at human TLR7, 1240 nM; in test [2], 9580 nM.

For the compound `c1cc(-c2nc3ccc(OCCCN4CCC[C@H]4CN4CCCC4)cc3o2)ccc1OCCCN1CCC[C@H]1CN1CCCC1` [Compound 24], the IC50 on human TLR9 (setting [3]) was 6.4 nM; in test [1], 8 nM; at human TLR7 it was 600 nM; in test [2], greater than 10000 nM.

As for `CN(C)CCCCN(C)CCCOc1ccc(-c2nc3ccc(OCCCN(C)CCCCN(C)C)cc3o2)cc1` [Compound 38], the IC50 at human TLR9 (setting [3]) is 34 nM; at human TLR7 it was greater than 2500 nM.

Take `C1=CCN(CCCOc2ccc(-c3nc4ccc(OCCCN5CC=CCC5)cc4o3)cc2)CC1` [Compound 28]: the values for the IC50 (on human TLR9 (setting [3]); against human TLR7; in test [2]) were 12.5 nM, 1550 nM and greater than 10000 nM, respectively.

As for `CN(C)CCCCCOc1ccc(-c2nc3ccc(OCCCCCN(C)C)cc3o2)cc1` [Compound 3], the IC50 at human TLR9 (setting [3]) worked out at 23 nM; against human TLR7, 1400 nM.

For `c1cc(N2CCN(CCCOc3ccc(-c4nc5ccc(OCCCN6CCN(c7ccncc7)CC6)cc5o4)cc3)CC2)ccn1` [Compound 19], the IC50 turned out to be 27.6 nM at human TLR9 (setting [3]), 1100 nM against human TLR7 and 10000 nM in test [2].

Consider `CN(C)CCOCCN(C)CCCOc1ccc(-c2nc3ccc(OCCCN(C)CCOCCN(C)C)cc3o2)cc1` [Compound 36], for which the IC50 is 38 nM at human TLR9 (setting [3]) and greater than 2500 nM at human TLR7.

With `O[C@H]1CC[C@H](NCCCOc2ccc(-c3nc4ccc(OCCCN[C@H]5CC[C@H](O)CC5)cc4o3)cc2)CC1` [Compound 6], the IC50 on human TLR9 (setting [3]) came to 20.2 nM; on human TLR7, 8410 nM.

As to `CCNCCCOc1ccc(-c2nc3ccc(OCCCNCC)cc3o2)cc1` [Compound 33], the IC50 is 100 nM on human TLR9 (setting [3]) and 8520 nM at human TLR7.

Take `CN(C)CCCOCCCN(C)CCCOc1ccc(-c2nc3ccc(OCCCN(C)CCCOCCCN(C)C)cc3o2)cc1` [Compound 37]: the IC50 on human TLR9 (setting [3]) was 30 nM; on human TLR7 it was greater than 2500 nM.

As to `COCCNCCCOc1ccc(-c2nc3ccc(OCCCNCCOC)cc3o2)cc1` [Compound 7], the IC50 at human TLR9 (setting [3]) was 23.3 nM; against human TLR7, 1310 nM; in test [2], greater than 10000 nM.

`CN(C)CCCNCCCOc1ccc(-c2nc3ccc(OCCCNCCCN(C)C)cc3o2)cc1` [Compound 9]: the IC50 at human TLR9 (setting [3]) worked out at 120 nM; at human TLR7, 9050 nM.

`c1cc(-c2nc3ccc(OC4CCNC4)cc3o2)ccc1OC1CCNC1` (stereo not shown) [Comparator, reference compound]: the values for the IC50 (at human TLR9 (setting [4]); in test [1]; on human TLR7) were 160 nM, 1020 nM and 2690 nM, respectively.
